Values quoted from earlier work in PubChem BioAssay AID1259409 (Chemical Carcinogenesis Research Information System (CCRIS), 2018).

Test system: rodent chemically induced tumor inhibition, incidence and multiplicity
Test: CCRIS tumor inhibitor studies

For NCCCC(N)(C(=O)O)C(F)F (centres undefined), the “tumour outcome (control, treated, inhibition, significance)” value (Carcinogen: N-ETHYL-N-NITROSOUREA, 759-73-9, Dose [Inhibitor]: 0, 500 MG/KG DIET FOR DURATION OF STUDY BEGINNING POST CARCINOGEN DOSE (STUDY DURATION: 35 WK), Route [Inhibitor]: ORAL, Species: MOUSE, Strain/Sex: PIM/MALE, Target Tissue: Type of Lesion: LYMPHATIC SYSTEM: LYMPHOMA, Dose [Carcinogen]: 50 MG/KG BW ONCE, Promoter: NONE USED) is listed as 21/40 (53%), 9/28 (32%), 40%, not significant, the “tumour outcome (control, treated, inhibition, significance)” value (Carcinogen: N-ETHYL-N-NITROSOUREA, 759-73-9, Dose [Inhibitor]: 0, 1000 MG/KG DIET FOR DURATION OF STUDY BEGINNING POST CARCINOGEN DOSE (STUDY DURATION: 35 WK), Route [Inhibitor]: ORAL, Species: MOUSE, Strain/Sex: PIM/MALE, Target Tissue: Type of Lesion: LYMPHATIC SYSTEM: LYMPHOMA, Dose [Carcinogen]: 50 MG/KG BW ONCE, Promoter: NONE USED) is listed as 21/40 (53%), 16/40 (40%), 26%, not significant and the “tumour outcome (control, treated, inhibition, significance)” value (Carcinogen: N-METHYL-N'-NITRO-N-NITROSOGUANIDINE, 70-25-7, Dose [Inhibitor]: 0, 0.5% IN DRINKING WATER ADMINISTERED CONCURRENTLY WITH CARCINOGEN FOR 35 WK (STUDY DURATION: 85 WK), Route [Inhibitor]: ORAL, Species: RAT, Strain/Sex: WISTAR/MALE, Target Tissue: Type of Lesion: DUODENUM: TUMOR, Dose [Carcinogen]: 2.5 MG IN DRINKING WATER FOR 35 WK, Promoter: NONE USED) is listed as 4/22 (18%), 9/25 (36%), -100%, not significant. For the same compound, the “tumour outcome (control, treated, inhibition, significance)” value (Carcinogen: N-METHYL-N'-NITRO-N-NITROSOGUANIDINE, 70-25-7, Dose [Inhibitor]: 0, 0.5% IN DRINKING WATER ADMINISTERED CONCURRENTLY WITH CARCINOGEN FOR 35 WK (STUDY DURATION: 85 WK), Route [Inhibitor]: ORAL, Species: RAT, Strain/Sex: WISTAR/MALE, Target Tissue: Type of Lesion: STOMACH: ADENOCARCINOMA, Dose [Carcinogen]: 2.5 MG IN DRINKING WATER FOR 35 WK, Promoter: NONE USED) was 12/22 (55%), 3/25 (12%), 78%, p<0.005, the “tumour outcome (control, treated, inhibition, significance)” value (Carcinogen: N-METHYL-N'-NITRO-N-NITROSOGUANIDINE, 70-25-7, Dose [Inhibitor]: 0, 0.5% IN DRINKING WATER ADMINISTERED CONCURRENTLY WITH CARCINOGEN FOR 35 WK (STUDY DURATION: 85 WK), Route [Inhibitor]: ORAL, Species: RAT, Strain/Sex: WISTAR/MALE, Target Tissue: Type of Lesion: STOMACH: ADENOMA, Dose [Carcinogen]: 2.5 MG IN DRINKING WATER FOR 35 WK, Promoter: NONE USED) was 5/22 (23%), 4/25 (16%), 30%, not significant and the “tumour outcome (control, treated, inhibition, significance)” value (Carcinogen: N-METHYL-N'-NITRO-N-NITROSOGUANIDINE, 70-25-7, Dose [Inhibitor]: 0, 0.5% IN DRINKING WATER ADMINISTERED CONCURRENTLY WITH CARCINOGEN FOR 35 WK (STUDY DURATION: 85 WK), Route [Inhibitor]: ORAL, Species: RAT, Strain/Sex: WISTAR/MALE, Target Tissue: Type of Lesion: STOMACH: SARCOMA, Dose [Carcinogen]: 2.5 MG IN DRINKING WATER FOR 35 WK, Promoter: NONE USED) was 2/22 (9%), 0/25 (0%), 100%, not significant. The “tumour outcome (control, treated, inhibition, significance)” value (Carcinogen: N-METHYL-N'-NITRO-N-NITROSOGUANIDINE, 70-25-7, Dose [Inhibitor]: 0, 1% IN DRINKING WATER ADMINISTERED CONCURRENTLY WITH CARCINOGEN FOR 35 WK (STUDY DURATION: 85 WK), Route [Inhibitor]: ORAL, Species: RAT, Strain/Sex: WISTAR/MALE, Target Tissue: Type of Lesion: DUODENUM: TUMOR, Dose [Carcinogen]: 2.5 MG IN DRINKING WATER FOR 35 WK, Promoter: NONE USED) was 4/22 (18%), 9/25 (36%), -100%, not significant, the “tumour outcome (control, treated, inhibition, significance)” value (Carcinogen: N-METHYL-N'-NITRO-N-NITROSOGUANIDINE, 70-25-7, Dose [Inhibitor]: 0, 1% IN DRINKING WATER ADMINISTERED CONCURRENTLY WITH CARCINOGEN FOR 35 WK (STUDY DURATION: 85 WK), Route [Inhibitor]: ORAL, Species: RAT, Strain/Sex: WISTAR/MALE, Target Tissue: Type of Lesion: STOMACH: ADENOCARCINOMA, Dose [Carcinogen]: 2.5 MG IN DRINKING WATER FOR 35 WK, Promoter: NONE USED) was 12/22 (55%), 5/25 (20%), 64%, p<0.05 and the “tumour outcome (control, treated, inhibition, significance)” value (Carcinogen: N-METHYL-N'-NITRO-N-NITROSOGUANIDINE, 70-25-7, Dose [Inhibitor]: 0, 1% IN DRINKING WATER ADMINISTERED CONCURRENTLY WITH CARCINOGEN FOR 35 WK (STUDY DURATION: 85 WK), Route [Inhibitor]: ORAL, Species: RAT, Strain/Sex: WISTAR/MALE, Target Tissue: Type of Lesion: STOMACH: ADENOMA, Dose [Carcinogen]: 2.5 MG IN DRINKING WATER FOR 35 WK, Promoter: NONE USED) was 5/22 (23%), 3/25 (12%), 48%, not significant. For the same compound, the “tumour outcome (control, treated, inhibition, significance)” value (Carcinogen: N-METHYL-N'-NITRO-N-NITROSOGUANIDINE, 70-25-7, Dose [Inhibitor]: 0, 1% IN DRINKING WATER ADMINISTERED CONCURRENTLY WITH CARCINOGEN FOR 35 WK (STUDY DURATION: 85 WK), Route [Inhibitor]: ORAL, Species: RAT, Strain/Sex: WISTAR/MALE, Target Tissue: Type of Lesion: STOMACH: SARCOMA, Dose [Carcinogen]: 2.5 MG IN DRINKING WATER FOR 35 WK, Promoter: NONE USED) was 2/22 (9%), 3/25 (12%), -33%, not significant, the “tumour outcome (control, treated, inhibition, significance)” value (Carcinogen: N-METHYL-N-BENZYLNITROSAMINE, 937-40-6, Dose [Inhibitor]: 0, 1% IN DEIONIZED WATER WITH ZINC-DEFICIENT DIET FOR 15 WK STARTING 1 HR POST CARCINOGEN TREATMENT (STUDY DURATION: 20, Route [Inhibitor]: ORAL, Species: RAT, Strain/Sex: SPRAGUE-DAWLEY/MALE, Target Tissue: Type of Lesion: ESOPHAGUS: TUMOR, Dose [Carcinogen]: 2 MG/KG BW ONCE ADMINISTERED AFTER 5 WK OF ZINC-DEFICIENT DIET TREATMENT) was 89% (8/9), 10% (2/20), 89%, p<0.0001 and the “tumour outcome (control, treated, inhibition, significance)” value (Carcinogen: N-METHYL-N-NITROSOUREA, 684-93-5, Dose [Inhibitor]: 0, 0.5 IN 2% NORMAL URINE INTO HETEROTOPICALLY TRANSPLANTED BLADDER 2/WK FOR 22 WK BEGINNING 1 WK POST CARCINOGEN (STUDY, Route [Inhibitor]: INJECTION, Species: RAT, Strain/Sex: F344/MALE, Target Tissue: Type of Lesion: BLADDER: TRANSITIONAL CELL CARCINOMA, Dose [Carcinogen]: 0.25 MG IN 0.9% SALINE 1/WK FOR 3 WK INTO BLADDER 4 WK AFTER HETEROTOPIC TRANSPLANT INTO GLUTEAL MUSCLE) was 31/38 (82%), 5/37 (16%), 80%, p<0.001. For the same compound, the “tumour outcome (control, treated, inhibition, significance)” value (Carcinogen: N-METHYL-N-NITROSOUREA, 684-93-5, Dose [Inhibitor]: 0, 0.5 IN 2% NORMAL URINE INTO HETEROTOPICALLY TRANSPLANTED BLADDER 2/WK FOR 29 WK BEGINNING 1 WK POST CARCINOGEN (STUDY, Route [Inhibitor]: INJECTION, Species: RAT, Strain/Sex: F344/MALE, Target Tissue: Type of Lesion: BLADDER: TRANSITIONAL CELL CARCINOMA, Dose [Carcinogen]: 0.25 MG IN 0.9% SALINE ONCE INTO BLADDER 4 WK AFTER HETEROTOPIC TRANSPLANT INTO GLUTEAL MUSCLE) was 15/35 (43%), 3/34 (9%), 79%, p<0.005 and the “tumour outcome (control, treated, inhibition, significance)” value (Carcinogen: N-METHYL-N-NITROSOUREA, 684-93-5, Dose [Inhibitor]: 0.5 ML OF 2% AGENT IN 0.9% SALINE SOLUTION TWICE IN WK 1 THEN ONCE 2 HR POST CARCINOGEN DOSE THEN TWICE IN WEEK 2 (STUDY, Route [Inhibitor]: INTRAVESICAL, Species: RAT, Strain/Sex: F344/MALE, Target Tissue: Type of Lesion: BLADDER: CARCINOMA, Dose [Carcinogen]: 0.25 MG IN 0.5 ML OF 0.9% SALINE SOLUTION ONCE, Promoter: URINE) was 25/36 (69%), 25/37 (68%), 1%, not calculated.
